In US20230053540A1, “TREATMENT OF LIVER INJURY” (Massachusetts Institute of Technology, priority 2019, published 2023):

Test system: hepatocytes
Assay: Seq-Well scRNA-Seq of hepatocytes after APAP overdose (signature scores, DEG vs untreated)
Assay type: in vivo, mouse

CC(=O)Nc1ccc(O)cc1 [APAP, acetaminophen]
Rpl34 logFC (APAP vs UT, A24logFC): −0.2976 | Rps24 logFC (APAP vs UT, A24logFC): −0.2625 | Rraga logFC (APAP vs UT, A24logFC): 0.2626 | Rsl1d1 logFC (APAP vs UT, A24logFC): 0.3461 | Selo logFC (APAP vs UT, A24logFC): −0.2574 | Sema4g logFC (APAP vs UT, A24logFC): −0.2505 | Serbp1 logFC (APAP vs UT, A24logFC): 0.3227 | Sf3b1 logFC (APAP vs UT, A24logFC): 0.2888 | Sigmar1 logFC (APAP vs UT, A24logFC): −0.3055 | Slc16a2 logFC (APAP vs UT, A24logFC): −0.252 | Slc16a10 logFC (APAP vs UT, A24logFC): −0.2548 | Slc25a51 logFC (APAP vs UT, A24logFC): 0.264 | Slc26a1 logFC (APAP vs UT, A24logFC): −0.2817 | Slc30a1 logFC (APAP vs UT, A24logFC): 0.2506 | Slc35d1 logFC (APAP vs UT, A24logFC): 0.3094 | Smoc1 logFC (APAP vs UT, A24logFC): 0.2616 | Spag9 logFC (APAP vs UT, A24logFC): 0.3188 | Spcs1 logFC (APAP vs UT, A24logFC): −0.2629 | Sptan1 logFC (APAP vs UT, A24logFC): 0.3127 | Srd5a1 logFC (APAP vs UT, A24logFC): −0.2773 | Srrm2 logFC (APAP vs UT, A24logFC): 0.3282 | St3gal4 logFC (APAP vs UT, A24logFC): 0.275 | Swi5 logFC (APAP vs UT, A24logFC): −0.2621 | Tab2 logFC (APAP vs UT, A24logFC): 0.3484 | Tbca logFC (APAP vs UT, A24logFC): −0.2726 | Tln1 logFC (APAP vs UT, A24logFC): 0.321 | Tmem86b logFC (APAP vs UT, A24logFC): −0.2582 | Tmem150a logFC (APAP vs UT, A24logFC): −0.2535 | Tmem242 logFC (APAP vs UT, A24logFC): −0.2725 | Tpi1 logFC (APAP vs UT, A24logFC): −0.2616 | Trip11 logFC (APAP vs UT, A24logFC): 0.3479 | Ubr5 logFC (APAP vs UT, A24logFC): 0.3057 | Ugt3a2 logFC (APAP vs UT, A24logFC): −0.2586 | Usp7 logFC (APAP vs UT, A24logFC): 0.2873 | Usp34 logFC (APAP vs UT, A24logFC): 0.2859 | Xrn2 logFC (APAP vs UT, A24logFC): 0.2985 | Ythdc1 logFC (APAP vs UT, A24logFC): 0.2641 | Zfand5 logFC (APAP vs UT, A24logFC): 0.2882 | Zfp106 logFC (APAP vs UT, A24logFC): 0.3369 | Zfp259 logFC (APAP vs UT, A24logFC): 0.2556 | 2810007J24Rik avg_logFC (APAP vs. UT): −0.2871 | 2810007J24Rik pct.1 (APAP vs. UT): 0.909 | Aadac avg_logFC (APAP vs. UT): −0.3243 | Aadac pct.1 (APAP vs. UT): 0.849 | Abca6 avg_logFC (APAP vs. UT): 0.2637 | Abca6 pct.1 (APAP vs. UT): 0.679 | Abcb4 avg_logFC (APAP vs. UT): 0.2759 | Abcb4 pct.1 (APAP vs. UT): 0.78 | Acaa1b avg_logFC (APAP vs. UT): −0.3158 | Acaa1b pct.1 (APAP vs. UT): 0.883 | Adh1 avg_logFC (APAP vs. UT): −0.3122 | Adh1 pct.1 (APAP vs. UT): 0.941 | Agpat6 avg_logFC (APAP vs. UT): 0.2706 | Agpat6 pct.1 (APAP vs. UT): 0.695 | Agt avg_logFC (APAP vs. UT): 0.3007 | Agt pct.1 (APAP vs. UT): 0.859 | Akr1c6 avg_logFC (APAP vs. UT): −0.5047 | Akr1c6 pct.1 (APAP vs. UT): 0.92 | Aldh9a1 avg_logFC (APAP vs. UT): 0.2715 | Aldh9a1 pct.1 (APAP vs. UT): 0.836 | Aldob avg_logFC (APAP vs. UT): 0.2576 | Aldob pct.1 (APAP vs. UT): 0.997 | Angptl3 avg_logFC (APAP vs. UT): 0.414 | Angptl3 pct.1 (APAP vs. UT): 0.961 | Apoa4 avg_logFC (APAP vs. UT): 0.5984 | Apoa4 pct.1 (APAP vs. UT): 0.574 | Apob avg_logFC (APAP vs. UT): 0.2678 | Apob pct.1 (APAP vs. UT): 0.989 | Apoc2 avg_logFC (APAP vs. UT): 0.5107 | Apoc2 pct.1 (APAP vs. UT): 0.851 | Arhgap5 avg_logFC (APAP vs. UT): 0.2875 | Arhgap5 pct.1 (APAP vs. UT): 0.647 | Arhgef12 avg_logFC (APAP vs. UT): 0.2783 | Arhgef12 pct.1 (APAP vs. UT): 0.597 | Asl avg_logFC (APAP vs. UT): 0.3374 | Asl pct.1 (APAP vs. UT): 0.859 | Atp1a1 avg_logFC (APAP vs. UT): 0.2871 | Atp1a1 pct.1 (APAP vs. UT): 0.623 | Atp2a2 avg_logFC (APAP vs. UT): 0.3031 | Atp2a2 pct.1 (APAP vs. UT): 0.666 | Bach1 avg_logFC (APAP vs. UT): 0.2613 | Bach1 pct.1 (APAP vs. UT): 0.356 | Bche avg_logFC (APAP vs. UT): 0.2566 | Bche pct.1 (APAP vs. UT): 0.562 | Brd2 avg_logFC (APAP vs. UT): 0.2856 | Brd2 pct.1 (APAP vs. UT): 0.59 | Btg2 avg_logFC (APAP vs. UT): 0.2635 | Btg2 pct.1 (APAP vs. UT): 0.401 | C8g avg_logFC (APAP vs. UT): −0.2582 | C8g pct.1 (APAP vs. UT): 0.859 | Car3 avg_logFC (APAP vs. UT): −0.3762 | Car3 pct.1 (APAP vs. UT): 0.956 | Cdo1 avg_logFC (APAP vs. UT): 0.2665 | Cdo1 pct.1 (APAP vs. UT): 0.964 | Ces3a avg_logFC (APAP vs. UT): −0.3174 | Ces3a pct.1 (APAP vs. UT): 0.93 | Ces3b avg_logFC (APAP vs. UT): −0.284 | Ces3b pct.1 (APAP vs. UT): 0.727 | Chchd2 avg_logFC (APAP vs. UT): −0.2575 | Chchd2 pct.1 (APAP vs. UT): 0.874 | Chchd10 avg_logFC (APAP vs. UT): 0.3833 | Chchd10 pct.1 (APAP vs. UT): 0.925 | Chka avg_logFC (APAP vs. UT): 0.2892 | Chka pct.1 (APAP vs. UT): 0.312 | Cite avg_logFC (APAP vs. UT): 0.3077 | Cite pct.1 (APAP vs. UT): 0.602 | Cml1 avg_logFC (APAP vs. UT): −0.2953 | Cml1 pct.1 (APAP vs. UT): 0.709 | Cox4i1 avg_logFC (APAP vs. UT): −0.2627 | Cox4i1 pct.1 (APAP vs. UT): 0.941 | Cox6c avg_logFC (APAP vs. UT): −0.3432 | Cox6c pct.1 (APAP vs. UT): 0.808 | Cox7a2 avg_logFC (APAP vs. UT): −0.2511 | Cox7a2 pct.1 (APAP vs. UT): 0.722 | Cp avg_logFC (APAP vs. UT): 0.3758 | Cp pct.1 (APAP vs. UT): 0.965 | Cpt1a avg_logFC (APAP vs. UT): 0.285 | Cpt1a pct.1 (APAP vs. UT): 0.775 | Creld2 avg_logFC (APAP vs. UT): 0.2626 | Creld2 pct.1 (APAP vs. UT): 0.487 | Csde1 avg_logFC (APAP vs. UT): 0.2739 | Csde1 pct.1 (APAP vs. UT): 0.749 | Cyb5 avg_logFC (APAP vs. UT): −0.2845 | Cyb5 pct.1 (APAP vs. UT): 0.972 | Cyp4a10 avg_logFC (APAP vs. UT): 0.7159 | Cyp4a10 pct.1 (APAP vs. UT): 0.727 | Cyp4a14 avg_logFC (APAP vs. UT): 1.281 | Cyp4a14 pct.1 (APAP vs. UT): 0.714 | D17Wsu92e avg_logFC (APAP vs. UT): 0.2809 | D17Wsu92e pct.1 (APAP vs. UT): 0.736 | Ddx3x avg_logFC (APAP vs. UT): 0.2753 | Ddx3x pct.1 (APAP vs. UT): 0.689 | Ddx21 avg_logFC (APAP vs. UT): 0.2576 | Dennd5b avg_logFC (APAP vs. UT): 0.2562 | Dennd5b pct.1 (APAP vs. UT): 0.55 | Dhcr24 avg_logFC (APAP vs. UT): 0.3629 | Dhcr24 pct.1 (APAP vs. UT): 0.883 | Eif1a avg_logFC (APAP vs. UT): 0.2667 | Eif1a pct.1 (APAP vs. UT): 0.492 | Eif4g2 avg_logFC (APAP vs. UT): 0.3407 | Eif4g2 pct.1 (APAP vs. UT): 0.824 | Ell2 avg_logFC (APAP vs. UT): 0.2572 | Ell2 pct.1 (APAP vs. UT): 0.609 | Elovl3 avg_logFC (APAP vs. UT): −0.5221 | Elovl3 pct.1 (APAP vs. UT): 0.65 | Epb4.1 avg_logFC (APAP vs. UT): 0.2567 | Epb4.1 pct.1 (APAP vs. UT): 0.527 | Etf1 pct.1 (APAP vs. UT): 0.61 | Etnppl avg_logFC (APAP vs. UT): 0.2637 | Etnppl pct.1 (APAP vs. UT): 0.647 | Fabp1 avg_logFC (APAP vs. UT): −0.3078 | Fabp1 pct.1 (APAP vs. UT): 0.992 | Fam134b avg_logFC (APAP vs. UT): 0.2987 | Fam134b pct.1 (APAP vs. UT): 0.589 | Fga avg_logFC (APAP vs. UT): 0.4335 | Fga pct.1 (APAP vs. UT): 0.996 | Fgb avg_logFC (APAP vs. UT): 0.3905 | Fgb pct.1 (APAP vs. UT): 0.999 | Fgg avg_logFC (APAP vs. UT): 0.3391 | Fgg pct.1 (APAP vs. UT): 0.997 | Fgl1 avg_logFC (APAP vs. UT): 0.3611 | Fgl1 pct.1 (APAP vs. UT): 0.861 | Fos avg_logFC (APAP vs. UT): 0.2633 | Fos pct.1 (APAP vs. UT): 0.609 | Gadd45g avg_logFC (APAP vs. UT): −0.3405 | Gadd45g pct.1 (APAP vs. UT): 0.503 | Gclc avg_logFC (APAP vs. UT): 0.671 | Gclc pct.1 (APAP vs. UT): 0.839 | Gfra1 avg_logFC (APAP vs. UT): 0.2536 | Gfra1 pct.1 (APAP vs. UT): 0.676 | Gjb2 avg_logFC (APAP vs. UT): 0.2803 | Gjb2 pct.1 (APAP vs. UT): 0.725 | Gm2a avg_logFC (APAP vs. UT): 0.2814 | Gm2a pct.1 (APAP vs. UT): 0.599 | Gm13775 avg_logFC (APAP vs. UT): −1.061 | Gm13775 pct.1 (APAP vs. UT): 0.306 | Gm15564 avg_logFC (APAP vs. UT): 1.171 | Gm15564 pct.1 (APAP vs. UT): 0.981 | Gm23935 avg_logFC (APAP vs. UT): 0.5701 | Gm23935 pct.1 (APAP vs. UT): 0.954 | Gm24601 avg_logFC (APAP vs. UT): 0.4962 | Gm24601 pct.1 (APAP vs. UT): 0.198 | Gm26917 avg_logFC (APAP vs. UT): 0.395 | Gm26917 pct.1 (APAP vs. UT): 0.253 | Gm26924 avg_logFC (APAP vs. UT): 0.8508 | Gm26924 pct.1 (APAP vs. UT): 1 | Grip2 avg_logFC (APAP vs. UT): 0.3797 | Grip2 pct.1 (APAP vs. UT): 0.158 | Grn avg_logFC (APAP vs. UT): 0.3692 | Grn pct.1 (APAP vs. UT): 0.62 | Gstm3 avg_logFC (APAP vs. UT): −0.4736 | Gstm3 pct.1 (APAP vs. UT): 0.269 | Gyk avg_logFC (APAP vs. UT): 0.3144 | Gyk pct.1 (APAP vs. UT): 0.583 | Hbb-bs avg_logFC (APAP vs. UT): 1.332 | Hbb-bs pct.1 (APAP vs. UT): 0.125 | Hbb-bt avg_logFC (APAP vs. UT): 0.4482 | Hbb-bt pct.1 (APAP vs. UT): 0.052 | Hdlbp avg_logFC (APAP vs. UT): 0.274 | Hdlbp pct.1 (APAP vs. UT): 0.828 | Herpud1 avg_logFC (APAP vs. UT): 0.2973 | Herpud1 pct.1 (APAP vs. UT): 0.842
